{
  "source": "patent US20050003383A1",
  "about": "“Linoleate isomerase” (Arkion Life Sciences LLC d/b/a Bio-Technical Resources …, priority 1999, published 2005)",
  "key": {"[1]": {"molecular_target": "P. acnes ATCC 6919 linoleate isomerase (Cutibacterium acnes, UniProt Q6A8X5)", "sequence (Q6A8X5 entry or part of it)": "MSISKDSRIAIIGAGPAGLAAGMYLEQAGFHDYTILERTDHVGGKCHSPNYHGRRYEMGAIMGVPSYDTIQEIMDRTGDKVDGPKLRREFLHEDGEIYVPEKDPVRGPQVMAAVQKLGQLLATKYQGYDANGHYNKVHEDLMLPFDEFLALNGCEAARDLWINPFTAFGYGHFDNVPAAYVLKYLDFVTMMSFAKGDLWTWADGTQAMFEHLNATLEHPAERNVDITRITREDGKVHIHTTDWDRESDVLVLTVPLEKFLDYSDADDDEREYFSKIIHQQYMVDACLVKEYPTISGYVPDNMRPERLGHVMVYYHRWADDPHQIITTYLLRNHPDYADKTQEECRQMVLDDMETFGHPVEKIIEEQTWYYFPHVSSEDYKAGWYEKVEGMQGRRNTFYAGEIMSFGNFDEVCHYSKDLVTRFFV", "assay_type": "biochemical, Propionibacterium acnes", "method": "Formation of CLA was determined by measuring the absorbence at 234 nm. […] Generally, the isomerase was assayed using an endpoint assay after 30 to 60 minutes incubation at room temperature. FIG. 18 (time course assay at different linoleic acid levels) and FIG. 19 (end point assay at different linoleic acid levels) show the effect of increasing substrate concentration on formation of […]."}, "[2]": {"system": "C. sporogenes ATCC 25762 linoleate isomerase", "test": "C. sporogenes isomerase activity and stability in extracts with additives", "assay_type": "biochemical, Clostridium sporogenes", "settings": "for effect of chelating agents on enzyme activity and stability: 1 mM; for effect on the stability of the isomerase: PMSF 0.1-1.0 mM, iodoacetamide 1 mM", "method": "Temperature sensitivity of the isomerase in crude extracts was tested at 4° C., room temperature (˜25° C.) and 37° C. […] The optimum pH was monitored by adjusting the pH from 5.0 to 9.0 using the 0.1M Tris buffer containing 10 mM NaCl, 1 mM DTT and 40 ppm linoleic acid.\nThe concentration of linoleic acid was tested from 0 to 100 ppm (FIG. 26).\nTwo different media, BHI and MRS, were tested. […] Protease inhibitors, PMSF (0.1-1.0 mM), iodoacetamide (1 mM) and pepstatin A were tested for their effects on the stability of the isomerase.\nIt has been reported that solubilization in the presence of lysophosphatidylcholine (LPC) allows higher detergent concentrations to be used, thus allowing more complete membrane protein solubilization. CaCl2 can activate enzymes, such as some nucleases."}, "L. reuteri PYR8": {"system": "L. reuteri PYR8", "test": "Whole cell biotransformation of linoleic acid to CLA by L. reuteri PYR8", "assay_type": "cell-based, Lactobacillus reuteri", "settings": "for effect on (cis,trans)-9,11-CLA formation: nonionic detergent added", "experimental": "Cultures were grown and harvested as described above. Washed cells were resuspended in either fresh growth medium or 0.1 M Tris pH 8.0 buffer containing linoleic acid at various concentrations.\nSamples were taken at appropriate intervals and analyzed for CLA as described in Example 2. In some experiments, various detergents were added to 0.1-0.5% final concentration. […] About 5 mL solvent was added to about 20 mL aqueous cell suspension in a 125 mL baffled shake flask incubated at room temperature.\nWhole cells of L. reuteri PYR8 were used in all biotransformation experiments described below.\nThe effect of substrate and product on the enzyme performance was also investigated, as well as the possibility of recycling the cells. The effect of CLA on the reaction was studied by adding different concentrations of either a mixture of isomers (Sigma material, approximately 41% 9,11 isomer and 48% 10,12 CLA), or just 9,11 CLA (Matreya material, approximately 77% 9,11 CLA). Concentrations from 500 to 3000 ppm were tested. Some experiments were also performed recycling the broth from a previous biotransformation reaction with L. reuteri PYR8, resulting in an initial CLA concentration around 700 ppm. In every case, 1000 ppm linoleic acid were added.\nIn the second experiment, cell recycle was studied with cells that have performed the biotransformation at different levels of linoleic acid. Cells were harvested, resuspended in breakage buffer at a 10-fold concentration, and linoleic acid was added at 1000, 1500, 2000, 2500 and 3000 ppm level. Given the higher linoleic acid concentration, the reaction was allowed to proceed for six hours. […] 1000 ppm linoleic acid were added and the reaction was followed for four hours."}, "[3]": {"settings": "cited from earlier work"}, "[4]": {"system": "L. reuteri PYR8 linoleate isomerase", "test": "L. reuteri PYR8 linoleate isomerase kinetic assay", "assay_type": "biochemical, Lactobacillus reuteri", "method": "Linoleic isomerase activity was assayed either via CLA quantification by gas chromatography as described in Example 2 or by spectrophotometry. The enzyme assay was carried out in 0.1 M Tris buffer pH 7.5, 10 mM NaCl, 1 mM dithiothreitol, with linoleic acid at 20 parts per million (ppm), unless otherwise noted.\nAbout 50 to about 250 μL of enzyme sample was added to 1.5 mL of enzyme assay buffer for reaction. About 1 to about 2 mL of aqueous phase was separated from the enzyme reaction and was extracted with about 3 mL of hexane. In some experiments, and with chromatography fractions containing detergent, 0.5 mL of methanol and 0.5 mL of 5 M NaCl solution were first added to enhance phase separation. The organic layer was separated and the absorbence at 234 nm was measured using a HP 8452A diode array spectrophotometer. Depending on the level of activity, assay mixtures of chromatography fractions were incubated at room temperature from about 1 to about 24 hours before extraction with hexane.\nKinetic assays were performed directly in a 0.5 mL quartz cuvette at room temperature and were continuously monitored at 234 nm. Reactions were initiated by addition of linoleic acid from a concentrated stock prepared in 1,2-propane diol. Reaction buffer was the same as above except it contained 10% 1,2-propane diol."}, "[5]": {"system": "B. fibrisolvens A-38 linoleate isomerase", "settings": "cited from earlier work; for Km / Vmax: compound as substrate, Kepler and Tove (1967)"}, "[6]": {"system": "linoleate isomerase from Clostridium sporogenes", "test": "C. sporogenes linoleate isomerase kinetic assay, absorbence at 234 nm, partially purified enzyme", "assay_type": "biochemical", "settings": "for substrate has an inhibitory effect at concentrations above: substrate concentration dependency of isomerization", "method": "In this experiment, all kinetic experiments were performed in a quartz cuvette (1-cm light-path with a magnetic stirrer) at room temperature using a HP 8452A diode array spectrophotometer. The cuvette was filled with 1 ml of incubation buffer containing 50 μg protein, 0.1 M potassium phosphate, pH7.5, 10 mM NaCl and 10% 1,2-propane diol. The isomerization was initiated by adding a small aliquot (1-2 μl) of freshly diluted substrate-stock (˜[…] linoleic acid) in 1,2-propane diol at 50 seconds. The increase in absorbence at 234 nm was monitored and recorded. […] The amount of product formed was calculated based on a molar extinction coefficient of 24,000."}, "[7]": {"test": "Linoleate isomerase characterization (Table 7B), enzymes compared on linoleic acid", "assay_type": "biochemical", "method": "Table 7B is a summary of the kinetic data and characterization of linoleate isomerases from P. acnes (crude extract prior to DEAE purification as in Example 11, except that the Vmax was determined using enzyme purified through the chromatofocusing step as in Example 11), L. reuteri (enzyme purified through the gel filtration step as in Example 3), and C. sporogenes (enzyme purified through the gel filtration step as in Example 17), all isolated by the present inventors, and the B. fibrisolvens A-38 linoleate isomerase (crude extract; Kepler and Tove, 1967, J. Biochem. 242:5686-5692). The substrate in these experiments was linoleic acid."}, "[8]": {"settings": "pH of about 7.5, about 20° C., read-out: Km for linoleic acid"}, "[9]": {"settings": "compound as substrate, read-out: Km"}, "[10]": {"settings": "compound as substrate at 10 PPM, activity with linoleic acid set as 100%"}, "[11]": {"settings": "substrate linoleic acid, purified enzyme"}},
  "note": "Like-named read-outs stand apart in the source and are kept apart here.",
  "data": [
    {"molecule": "c1cnc2c(c1)ccc1cccnc12", "note": "[1,10-phenanthroline]", "values": [
      {"measurement": "inhibition of isomerase activity", "setting": "[1]; EDTA 5 mM, 1,10-phenanthroline 1 mM, p-chloromercuribenzoate 5 μM, N-ethylmaleimide 100 μM", "result": "not inhibited"},
      {"measurement": "effect of chelating agents on enzyme activity and stability", "setting": "[2]; crude extracts", "result": "protected"}
    ]},
    {"molecule": "[Ca+2].[Cl-].[Cl-]", "note": "[CaCl2]", "values": [
      {"measurement": "effect on enzyme activity", "setting": "[2]; Tris and phosphate buffer systems", "result": "decreased the enzyme activity"}
    ]},
    {"molecule": "O=C(O)CN(CCN(CC(=O)O)CC(=O)O)CC(=O)O", "note": "[EDTA]", "values": [
      {"measurement": "effect of chelating agents on enzyme activity and stability", "setting": "[2]; crude extracts", "result": "negative effect"}
    ]},
    {"molecule": "O=S(=O)(F)Cc1ccccc1", "note": "[PMSF]", "values": [
      {"measurement": "effect on the stability of the isomerase", "setting": "[2]", "result": "None provided measurable benefit"}
    ]},
    {"molecule": "CCCCCCCC/C=C\\CCCCCCCC(=O)OCCOCC(OCCO)C1OCC(OCCO)C1OCCO", "note": "(centres unmarked) [Tween-80]", "values": [
      {"measurement": "effect on (cis,trans)-9,11-CLA formation", "setting": "L. reuteri PYR8", "result": "does not significantly increase"}
    ]},
    {"molecule": "CCCCCCCCCCCCCCCC", "note": "[hexadecane]", "values": [
      {"measurement": "log P", "setting": "[3]", "result": 8.6}
    ]},
    {"molecule": "NC(=O)CI", "note": "[iodoacetamide]", "values": [
      {"measurement": "effect on the stability of the isomerase", "setting": "[2]", "result": "None provided measurable benefit"}
    ]},
    {"molecule": "CCCCC/C=C\\C/C=C\\CCCCCCCC(=O)O", "note": "[linoleic acid, (cis, cis)-9, 12-octadecadienoic acid]", "values": [
      {"measurement": "Km", "setting": "[1]; [8]", "result": "≥ 17.2", "unit": "µM"},
      {"measurement": "Vmax", "setting": "[4]; compound as substrate", "result": 880, "unit": "nmole/min/mg protein"},
      {"measurement": "Km", "setting": "[4]; [9]", "result": 8.1, "unit": "µM"},
      {"measurement": "Km", "setting": "[4]; [8]", "result": "≥ 8.1", "unit": "µM"},
      {"measurement": "Km", "setting": "[5]", "result": 12, "unit": "µM"},
      {"measurement": "Vmax", "setting": "[5]", "result": 55, "unit": "nmole/min/mg protein"},
      {"measurement": "substrate inhibition", "setting": "L. reuteri PYR8; up to 3000 ppm linoleic acid, cells with good activity", "result": "no substrate inhibition was detected"},
      {"measurement": "maximal velocity (Vmax)", "setting": "[6]; Lineweaver-Burke plot", "result": 350, "unit": "μmol CLA/min/mg protein"},
      {"measurement": "Km", "setting": "[6]; Lineweaver-Burke plot, read-out: Km", "result": 11.3, "unit": "µM"},
      {"measurement": "Vmax", "setting": "[6]; compound as substrate", "result": 350, "unit": "nmole/min/mg protein"},
      {"measurement": "RELATIVE ACTIVITY %", "setting": "[6]; [10]", "result": 100, "unit": "%"},
      {"measurement": "Km", "setting": "[6]; [9]", "result": 11.3, "unit": "µM"},
      {"measurement": "Km", "setting": "[6]; [8]", "result": "≥ 11.3", "unit": "µM"},
      {"measurement": "substrate has an inhibitory effect at concentrations above", "setting": "[6]", "result": "above 20 μM"},
      {"measurement": "optimum concentration for linoleic acid", "setting": "[2]; tested from 0 to 100 ppm, crude extracts", "result": 40, "unit": "ppm"}
    ]},
    {"molecule": "CC/C=C\\C/C=C\\C/C=C\\CCCCCCCC(=O)O", "note": "[linolenic acid, (cis, cis, cis)-9, 12, 15 octadecatrienoic acid]", "values": [
      {"measurement": "Km", "setting": "[5]", "result": 23, "unit": "µM"},
      {"measurement": "Vmax", "setting": "[5]", "result": 130, "unit": "nmole/min/mg protein"},
      {"measurement": "Vmax", "setting": "[6]; compound as substrate", "result": 811, "unit": "nmole/min/mg protein"},
      {"measurement": "RELATIVE ACTIVITY %", "setting": "[6]; [10]", "result": 84, "unit": "%"},
      {"measurement": "Km", "setting": "[6]; [9]", "result": 22.5, "unit": "µM"},
      {"measurement": "substrate has an inhibitory effect at concentrations above", "setting": "[6]", "result": "> 40", "unit": "µM"}
    ]},
    {"molecule": "CCCCCCCC/C=C\\CCCCCCCC(=O)O", "note": "[oleic acid, (cis)-9 octadecenoic acid]", "values": [
      {"measurement": "type of inhibition", "setting": "[5]; reported by Kepler and Tove", "result": "competitive inhibition"},
      {"measurement": "type of inhibition", "setting": "[6]; 0, 24 and 48 μM oleic acid, varied linoleic acid, Lineweaver-Burke and Hanes-Woolf plots", "result": "uncompetitive inhibitor"},
      {"measurement": "isomerase activity in the presence of inhibitor", "setting": "[6]; 70 μM oleic acid (20 PPM)", "result": "almost completely lost"},
      {"measurement": "RELATIVE ACTIVITY %", "setting": "[6]; compound added at 35 μM, substrate LA 35 μM, pH 7.5, LA alone = 100%", "result": 25, "unit": "%"},
      {"measurement": "RELATIVE ACTIVITY %", "setting": "[6]; [10]", "result": 0, "unit": "%"},
      {"measurement": "Ki", "setting": "[6]; inhibition of linoleic acid isomerization, calculated from secondary plots, read-out: inhibition constants (Ki)", "result": 23.8, "unit": "µM"}
    ]},
    {"molecule": "Triton X-100", "values": [
      {"measurement": "effect on (cis,trans)-9,11-CLA formation", "setting": "L. reuteri PYR8", "result": "does not significantly increase"}
    ]},
    {"molecule": "pepstatin A", "values": [
      {"measurement": "effect on the stability of the isomerase", "setting": "[2]", "result": "None provided measurable benefit"}
    ]},
    {"molecule": "L. reuteri: (cis, trans)-9,11-linoleate isomerase from Lactobacillus reuteri PYR8, SEQ ID NO:18 (protein, listed as Lactobacillus reuteri) MYYSNGNYEAFARPKKPAGVDKKHAYIVGGGLAGLSAAVFLIRDAQMPGENIHILEELPVAGGSLDGEDRPGIGFVTRGGREMENHFECMWDMYRSIPSLEIPGASYLDEYYWLDKEDPNSSNCRLTYKRGNEVPSDGKYGLSKKAIKELTKLIMTPEEKLGRETIGEYFSDDFFESNFWIYWSTMFAFERWHSLAEMRRYMMRFIHHIDGLPDFTALKFNKYNQYESMTKPLLAYLKDHHVKIEYDTQVKNVIVDTHGRQKHAKRILLTQAGKDKVVELTDNDLVFVTNGSITESSTYGSHHQAARPTQALGGSWKLWENLARQSADFGHPDVFCKNLPGRSWFISATATVKNPQVEPYIERLTKRDLHDGKVNTGGIITVTDSNWMLSWTIHRQPHFKKQKKNETIVWIYGLYSNTKGNYIKKRIVDCTGEEITKEWLSIWGFQKPLIDDLAKESSINTVPVYMPFITSYFMPRVKGDRPDVVPEGSANLAFIGNFAESPSRDTVFTTEYSVRTAMEAVYTLLDVDRGVPEVFNSIYDLRELMRAMYYMNDKKPLKDMDLPIPKIVEKPLLKKLQGTWIGELMEQQHLL", "values": [
      {"measurement": "CLA Isomer", "setting": "[7]; CLA isomer produced from linoleic acid", "result": "9,11"},
      {"measurement": "Optimal pH", "setting": "[7]; substrate linoleic acid", "result": 7.5},
      {"measurement": "Km", "setting": "[7]; [11]", "result": 8.1, "unit": "µM"},
      {"measurement": "Vmax", "setting": "[7]; [11]", "result": "880^5 nmol/min/mg"}
    ]}
  ]
}
